Measurements as given in patent publication US6323195A, “Galanthamine derivatives as acetylcholinesterase inhibitors” (priority 1993, dated 2001).
pIC50: −log10 of the molar value. Where a name gives a salt, the structure may show the parent alone.

How the values were obtained:
acetylcholinesterase = acetylcholinesterase (Homo sapiens, UniProt P22303); experiment: Acetylcholinesterase Inhibition Assay (photometric method of Ellman et al.); type: biochemical
mice = type: in vivo; conditions: SDDA Dose 0.003 mg/kg, s.c., retest after 24 hours
Protocol: This utility can also be ascertained by determining the ability of these compounds to restore cholinergically deficient memory in the Dark Avoidance Assay. In this assay mice are tested for their ability to remember an unpleasant stimulus for a period of 24 hours. A mouse is placed in a chamber that contains a dark compartment; a strong incandescent light drives it to the dark compartment, where an electric shock is administered through metal plates on the floor. The animal is removed from the testing apparatus and tested again, 24 hours later, for the ability to remember the electric shock.
If scopolamine, an anticholinergic that is known to cause memory impairment, is administered before an animal's initial exposure to the test chamber, the animal re-enters the dark compartment shortly after being placed in the test chamber 24 hours later. This effect of scopolamine is blocked by an active test compounds, resulting in a greater interval before reentry into the dark compartment.
The test results are expressed as the percent of a group of animals in which the effect of scopolamine is blocked, as manifested by an increased interval between being placed in the test chamber and reentering the dark compartment. Results of Dark Avoidance Assay for some of the compounds of this invention are presented in Table II along with a result for a reference compounds.

Sequence of acetylcholinesterase (P22303 32-614): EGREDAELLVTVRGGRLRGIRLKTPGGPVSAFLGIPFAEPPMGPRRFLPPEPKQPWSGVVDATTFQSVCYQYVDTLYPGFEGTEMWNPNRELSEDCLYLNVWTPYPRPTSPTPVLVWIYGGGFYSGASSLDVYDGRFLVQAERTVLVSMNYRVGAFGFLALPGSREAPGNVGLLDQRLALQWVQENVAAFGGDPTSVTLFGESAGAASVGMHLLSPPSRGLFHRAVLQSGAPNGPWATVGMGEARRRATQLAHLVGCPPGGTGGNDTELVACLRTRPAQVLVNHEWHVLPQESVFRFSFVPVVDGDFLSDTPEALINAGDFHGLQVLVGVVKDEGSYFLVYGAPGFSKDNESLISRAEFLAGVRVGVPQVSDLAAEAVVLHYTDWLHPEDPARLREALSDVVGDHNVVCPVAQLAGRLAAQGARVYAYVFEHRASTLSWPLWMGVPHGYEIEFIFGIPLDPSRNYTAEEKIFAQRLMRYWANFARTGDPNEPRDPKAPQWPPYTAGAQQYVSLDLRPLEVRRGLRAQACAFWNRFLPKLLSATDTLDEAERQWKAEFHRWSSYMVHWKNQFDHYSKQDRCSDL

## CN1CC[C@@]23C=C[C@H](O)C[C@@H]2Oc2c(OC(=O)N4CCc5ccccc5C4)ccc(c23)C1 [Example 2, (6-O-Demethyl)-6-O-(1,2,3,4-tetrahydroisoquinolin-2-yl)carbonyl]-galanthamine hydrochloride]
acetylcholinesterase
  pIC50: 9.05
mice
  Percent of Animals with Scopolamine Induced Memory Deficit Reversal: 27% of Animals
